Results reported in US8633245B2, “PAI-1 inhibitor” (Institute of Medicinal Molecular Design, Inc., priority 2008, dated 2014).
Where two headings read alike, the source gives them in different places.

Molecular target: T1, recombinant human PAI-1 (Homo sapiens, UniProt P05121)
T1 construct: purchased Molecular Innovations, Inc
Experiment: Test Example 2: human PAI-1 inhibitory activity (tPA fluorogenic substrate, pH 7.4 HEPES buffer)
Type: biochemical
Experimental: 0.1 M HEPES, 0.1 M NaCl. 1 mM EDTA. 0.1% Polyethylene glycol 8,000 (Hampton Research Corporation),
2 mM Dimethyldecylphoshine oxide [Apo-10] (Fluka Corporation)

[1] = human PAI-1, compound concentration 0.1 μM
[2] = human PAI-1, compound concentration 0.3 μM
[3] = human PAI-1, compound concentration 1 μM
[4] = human PAI-1, compound concentration 3 μM
[5] = human PAI-1, calculated from the inhibition rates
[6] = read-out: Inhibition Rate of PAI-1 Activity (%)
[7] = human PAI-1, compound concentration 10 μM
[8] = human PAI-1, compound concentration 25 μM

T1 sequence (P05121 24-402): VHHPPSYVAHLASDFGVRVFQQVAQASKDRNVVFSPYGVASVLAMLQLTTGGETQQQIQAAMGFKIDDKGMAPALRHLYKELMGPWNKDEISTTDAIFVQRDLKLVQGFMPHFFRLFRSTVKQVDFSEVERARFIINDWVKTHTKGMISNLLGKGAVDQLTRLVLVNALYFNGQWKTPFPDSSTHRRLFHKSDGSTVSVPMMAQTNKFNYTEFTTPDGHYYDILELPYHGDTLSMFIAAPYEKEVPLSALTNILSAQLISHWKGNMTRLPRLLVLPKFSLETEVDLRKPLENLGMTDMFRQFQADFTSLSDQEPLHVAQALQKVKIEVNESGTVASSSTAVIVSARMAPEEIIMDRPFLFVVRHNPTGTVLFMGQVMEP

## CCCCc1ccc(Oc2cc(-c3ccc(OC(F)(F)F)cc3)ccc2CCC(=O)O)cc1 [Compound 512]
[1]
  Inhibition Rate of PAI-1 Activity (%): 18%
[2]
  Inhibition Rate of PAI-1 Activity (%): 41%
[3]
  Inhibition Rate of PAI-1 Activity (%): 96%
[4]
  Inhibition Rate of PAI-1 Activity (%): 98%

## CCCCCCCCOc1ccc(-c2ccc(OC(F)(F)F)cc2)cc1N(CCCCc1ccccc1)C(=O)C(=O)O [Compound 653]
[1]
  Inhibition Rate of PAI-1 Activity (%): 43%
[2]
  Inhibition Rate of PAI-1 Activity (%): 95%
[3]
  Inhibition Rate of PAI-1 Activity (%): >99%
[4]
  Inhibition Rate of PAI-1 Activity (%): >99%

## CCCCC1CCC(Oc2ccc(-c3ccc(OC(F)(F)F)cc3)cc2N(CCCCc2ccccc2)C(=O)C(=O)O)CC1 (stereo not shown) [Compound 637]
[1]
  Inhibition Rate of PAI-1 Activity (%): 0%
[2]
  Inhibition Rate of PAI-1 Activity (%): 5%
[3]
  Inhibition Rate of PAI-1 Activity (%): 80%
[4]
  Inhibition Rate of PAI-1 Activity (%): 71%

## CC(C)(C)OCCOc1ccc(-c2ccc(OC(F)(F)F)cc2)cc1N(CCCCc1ccccc1)C(=O)C(=O)O [Compound 351]
[5]
  IC50: 1950 nM

## CCCCCCCCCOc1ccc(N(CCCCc2ccccc2)C(=O)C(=O)O)cc1-c1ccc(OC(F)(F)F)cc1 [Compound 387]
  IC50: < 100 nM
[6]
  inhibition at 0.3 µM: > 99%
  inhibition at 1 µM: > 99%
  inhibition at 3 µM: > 99%

## CCCCC(Oc1cc(Oc2ccc(OC(F)(F)F)cc2)ccc1Oc1ccc(C(C)(C)C)cc1)C(=O)O (stereo not shown) [Compound 312]
[5]
  IC50: 530 nM

## CCCCC(Oc1ccc(-c2cccc(C(F)(F)F)c2)cc1Oc1ccc(C(C)(C)C)cc1)C(=O)O (stereo not shown) [Compound 320]
[5]
  IC50: 740 nM

## CCCCCOc1ccc(-c2ccc(OCC(=O)O)c(Oc3ccc(C(C)(C)C)cc3)c2)cc1 [Compound 440]
[1]
  Inhibition Rate of PAI-1 Activity (%): 0%
[2]
  Inhibition Rate of PAI-1 Activity (%): 3%
[3]
  Inhibition Rate of PAI-1 Activity (%): 96%
[4]
  Inhibition Rate of PAI-1 Activity (%): >99%

## CC(Oc1cc(-c2ccc(OC(F)(F)F)cc2)ccc1/C=C/C(=O)O)c1ccccc1 (stereo not shown) [Compound 500]
[1]
  Inhibition Rate of PAI-1 Activity (%): 19%
[2]
  Inhibition Rate of PAI-1 Activity (%): 14%
[3]
  Inhibition Rate of PAI-1 Activity (%): 25%
[4]
  Inhibition Rate of PAI-1 Activity (%): 80%

## CCCCC(Oc1cc(-c2ccc(OC(F)(F)F)cc2)ccc1Oc1ccccc1)C(=O)O (stereo not shown) [Compound 307]
[5]
  IC50: 1530 nM

## CCCCCOc1ccc(-c2ccc(OC(F)(F)F)cc2)cc1N(CCCCC)C(=O)C(=O)O [Compound 366]
  IC50: 1060 nM

## CC(C)(C)c1ccc(Oc2cc(-c3cccc(C(F)(F)F)c3)ccc2CCC(=O)O)cc1 [Compound 332]
[5]
  IC50: 1470 nM
[6]
  inhibition at 3 µM: > 99%

## CCCCCCCOc1cc(-c2ccc(OC(F)(F)F)cc2)ccc1N(CCCCc1ccccc1)C(=O)C(=O)O [Compound 386]
  IC50: 470 nM
[6]
  inhibition at 1 µM: > 99%
  inhibition at 3 µM: > 99%

## O=C(O)C(=O)N(CCCCc1ccccc1)c1ccc(N2CCCC2)c(-c2ccc(OC(F)(F)F)cc2)c1 [Compound 673]
[1]
  Inhibition Rate of PAI-1 Activity (%): 0%
[2]
  Inhibition Rate of PAI-1 Activity (%): 15%
[3]
  Inhibition Rate of PAI-1 Activity (%): >99%
[4]
  Inhibition Rate of PAI-1 Activity (%): >99%

## O=C(O)C(=O)N(CCCCc1ccccc1)c1cc(-c2ccc(OC(F)(F)F)cc2)ccc1OC1C2CC3CC(C2)CC1C3 (stereo not shown) [Compound 634]
[1]
  Inhibition Rate of PAI-1 Activity (%): 17%
[2]
  Inhibition Rate of PAI-1 Activity (%): 37%
[3]
  Inhibition Rate of PAI-1 Activity (%): >99%
[4]
  Inhibition Rate of PAI-1 Activity (%): 92%

## CC(C)(C)c1ccc(CCc2cc(-c3ccc(OC(F)(F)F)cc3)ccc2OCC(=O)O)cc1 [Compound 551]
[1]
  Inhibition Rate of PAI-1 Activity (%): 0%
[2]
  Inhibition Rate of PAI-1 Activity (%): 4%
[3]
  Inhibition Rate of PAI-1 Activity (%): 92%
[4]
  Inhibition Rate of PAI-1 Activity (%): >99%

## CCCCCOc1cc(-c2ccc(C(F)(F)F)cc2)ccc1N(CCCCc1ccccc1)C(=O)C(=O)O [Compound 392]
  IC50: 710 nM
[6]
  inhibition at 3 µM: > 99%

## CCCCC(Oc1cc(-c2ccc(OC(F)(F)F)cc2)ccc1OCc1ccc(C(C)(C)C)cc1)C(=O)O (stereo not shown) [Compound 313]
[5]
  IC50: 980 nM

## CC(C)c1ccc(-c2ccc(/C=C/C(=O)O)c(Oc3ccc(C(C)(C)C)cc3)c2)cc1 [Compound 518]
[1]
  Inhibition Rate of PAI-1 Activity (%): 14%
[2]
  Inhibition Rate of PAI-1 Activity (%): 54%
[3]
  Inhibition Rate of PAI-1 Activity (%): >99%
[4]
  Inhibition Rate of PAI-1 Activity (%): >99%

## CCCCCCC(Oc1cc(-c2ccc(OC(F)(F)F)cc2)ccc1Oc1ccc(OC(F)(F)F)cc1)C(=O)O (stereo not shown) [Compound 326]
[5]
  IC50: 330 nM

## CC(C)(C)c1ccc(Oc2cc(-c3cccc(OC(F)(F)F)c3)ccc2OCC(=O)O)cc1 [Compound 331]
[5]
  IC50: 790 nM

## CCC(CC)Oc1ccc(-c2ccc(/C=C/C(=O)O)c(Oc3ccc(C(C)(C)C)cc3)c2)cc1 [Compound 521]
[1]
  Inhibition Rate of PAI-1 Activity (%): 25%
[2]
  Inhibition Rate of PAI-1 Activity (%): 82%
[3]
  Inhibition Rate of PAI-1 Activity (%): >99%
[4]
  Inhibition Rate of PAI-1 Activity (%): >99%

## CC(C)(C)c1ccc(Oc2cc(Oc3ccc(OC(F)(F)F)cc3)ccc2OCC(=O)O)cc1 [Compound 538]
[1]
  Inhibition Rate of PAI-1 Activity (%): 0%
[2]
  Inhibition Rate of PAI-1 Activity (%): 12%
[3]
  Inhibition Rate of PAI-1 Activity (%): 87%
[4]
  Inhibition Rate of PAI-1 Activity (%): 98%

## CC(C)c1ccccc1Oc1cc(-c2ccc(OC(F)(F)F)cc2)ccc1OCC(=O)O [Compound 513]
[1]
  Inhibition Rate of PAI-1 Activity (%): 17%
[2]
  Inhibition Rate of PAI-1 Activity (%): 7%
[3]
  Inhibition Rate of PAI-1 Activity (%): 69%
[4]
  Inhibition Rate of PAI-1 Activity (%): >99%

## CCCCCOc1ccc(-c2ccc(Oc3ccc(C(C)(C)C)cc3)c(OCC(=O)O)c2)cc1 [Compound 454]
[1]
  Inhibition Rate of PAI-1 Activity (%): 11%
[2]
  Inhibition Rate of PAI-1 Activity (%): 17%
[3]
  Inhibition Rate of PAI-1 Activity (%): >99%
[4]
  Inhibition Rate of PAI-1 Activity (%): >99%

## CC(C)(C)c1ccc(N(CC(=O)O)c2ccccc2Oc2ccc(OC(F)(F)F)cc2)cc1 [Compound 610]
[3]
  Inhibition Rate of PAI-1 Activity (%): 49%
[4]
  Inhibition Rate of PAI-1 Activity (%): 94%
[7]
  Inhibition Rate of PAI-1 Activity (%): 97%
[8]
  Inhibition Rate of PAI-1 Activity (%): 86%

## O=C(O)c1cc(-c2ccc(OC(F)(F)F)cc2)ccc1OCc1ccccc1 [Compound 401]
[4]
  Inhibition Rate of PAI-1 Activity (%): 15%
[7]
  Inhibition Rate of PAI-1 Activity (%): 17%
[8]
  Inhibition Rate of PAI-1 Activity (%): 53%

## CCCCCOc1ccc(-c2ccc(OC(F)(F)F)cc2)cc1N(CCCOCc1ccccc1)C(=O)C(=O)O [Compound 655]
[1]
  Inhibition Rate of PAI-1 Activity (%): 3%
[2]
  Inhibition Rate of PAI-1 Activity (%): 0%
[3]
  Inhibition Rate of PAI-1 Activity (%): 44%
[4]
  Inhibition Rate of PAI-1 Activity (%): 97%

## CC(C)(C)c1ccc(CN(C(=O)C(=O)O)c2ccc(C(=O)Nc3ccc(OC(F)(F)F)cc3)cc2)cc1 [Compound 617]
[3]
  Inhibition Rate of PAI-1 Activity (%): 6%
[4]
  Inhibition Rate of PAI-1 Activity (%): 64%
[7]
  Inhibition Rate of PAI-1 Activity (%): >99%
[8]
  Inhibition Rate of PAI-1 Activity (%): >99%

## CC(C)(C)c1ccc(Oc2cc(-c3ccc(C(C)(C)C)cc3)ccc2OCC(=O)O)cc1 [Compound 446]
[1]
  Inhibition Rate of PAI-1 Activity (%): 3%
[2]
  Inhibition Rate of PAI-1 Activity (%): 13%
[3]
  Inhibition Rate of PAI-1 Activity (%): 84%
[4]
  Inhibition Rate of PAI-1 Activity (%): >99%

## CC(C)(C)c1cccc(Oc2cc(-c3ccc(OC(F)(F)F)cc3)ccc2/C=C/C(=O)O)c1 [Compound 335]
[5]
  IC50: 740 nM
[6]
  inhibition at 3 µM: > 99%

## CC(C)c1ccc(Oc2cc(-c3ccc(OC(F)(F)F)cc3)ccc2/C=C/C(=O)O)cc1 [Compound 509]
[1]
  Inhibition Rate of PAI-1 Activity (%): 1%
[2]
  Inhibition Rate of PAI-1 Activity (%): 22%
[3]
  Inhibition Rate of PAI-1 Activity (%): 96%
[4]
  Inhibition Rate of PAI-1 Activity (%): >99%

## CCCCN(CC(=O)O)c1cc(-c2ccc(OC(F)(F)F)cc2)ccc1OCCCCc1ccccc1 [Compound 433]
[1]
  Inhibition Rate of PAI-1 Activity (%): 13%
[2]
  Inhibition Rate of PAI-1 Activity (%): 6%
[3]
  Inhibition Rate of PAI-1 Activity (%): 41%
[4]
  Inhibition Rate of PAI-1 Activity (%): 98%

## CCCCCCCCCCCCCCCOc1ccc(-c2ccc(OC(F)(F)F)cc2)cc1N(CCCCc1ccccc1)C(=O)C(=O)O [Compound 375]
  IC50: < 100 nM
[6]
  inhibition at 1 µM: > 99%

## O=C(O)CCCCCCCCOc1ccc(-c2ccc(OC(F)(F)F)cc2)cc1N(CCCCc1ccccc1)C(=O)C(=O)O [Compound 646]
[1]
  Inhibition Rate of PAI-1 Activity (%): 4%
[2]
  Inhibition Rate of PAI-1 Activity (%): 15%
[3]
  Inhibition Rate of PAI-1 Activity (%): 38%
[4]
  Inhibition Rate of PAI-1 Activity (%): 86%

## CCCCCCCOc1ccc(N(CCCCc2ccccc2)C(=O)C(=O)O)cc1-c1ccc(OC(F)(F)F)cc1 [Compound 394]
  IC50: 220 nM
[6]
  inhibition at 3 µM: > 99%

## O=C(O)C(=O)N(CCCCc1ccccc1)c1ccc(-c2ccc3ccccc3c2)cc1 [Compound 671]
[1]
  Inhibition Rate of PAI-1 Activity (%): 26%
[2]
  Inhibition Rate of PAI-1 Activity (%): 12%
[3]
  Inhibition Rate of PAI-1 Activity (%): 23%
[4]
  Inhibition Rate of PAI-1 Activity (%): 92%
